{"source": "paper PMC5244392", "about": "“Interspecies cathelicidin comparison reveals divergence in antimicrobial activity, TLR modulation, chemokine induction and regulation of phagocytosis” (Scientific Reports, 2017)", "key": {"RAW264.7 cells": {"tested_on": "RAW264.7 cells", "assay": "Phagocytosis assay with fluorescent latex beads", "assay_type": "cell-based, murine", "details": "30 min; for Summary class, phagocytosis / Effect on bead uptake (phagocytosis), in words: latex beads 10 per cell; for Summary class, phagocytosis: 37 °C, MFI corrected for 0 °C, peptide 0.31-5 μM, − = no significant effect, N = 3; for Effect on bead uptake (phagocytosis), in words: peptide 0.31, 1.25 and 5 μM", "experimental": "Red fluorescent (λex 575 nm and λem 610 nm) carboxylate-modified polystyrene latex beads (0.5 μm; Sigma Aldrich, St. Louis, MO, USA) were washed three times with PBS and resuspended in culture medium. Peptide dilutions were prepared in culture medium and added to RAW264.7 cells, directly followed by the latex beads (ratio 10 beads to 1 cell). Cells were incubated for 30 minutes at 37 °C, 5% CO2 (energy-dependent uptake) or 0 °C (non-specific adherence), after which cells were washed extensively with ice-cold PBS supplemented with 1% FCS and 0.01% NaN3, to remove all free beads. After washing, cells were scraped and resuspended in FACS buffer (PBS supplemented with 0.5% BSA). Samples were measured with the BD FACSCanto II flow cytometer (BD Biosciences, San Jose, CA, USA) and analyzed with FlowJo software (Ashland, OR, USA). Mean fluorescence intensity (MFI), corrected for non-specific adherence, was used as an indicator for the number of beads taken up.\nWhile the above-described functions of cathelicidins are well-known, relatively little is known about the influence of cathelicidins on phagocytosis. Therefore, RAW264.7 cells were incubated with fluorescent beads to study the effect of cathelicidins on phagocytosis. The uptake was corrected for fluorescence measured after incubation on ice instead of 37 °C, which inhibits the active process of phagocytosis. After 30 minutes, 90% of the RAW264.7 cells took up latex beads (Fig. 4A). Histograms exemplify changes in bead phagocytosis with different concentrations of K9CATH (Fig. 4B), eCATH-2 (Fig. 4C) and chCATH-3 (Fig. 4D). Effect of all cathelicidins are depicted by the average mean fluorescence intensity (MFI) in Fig. 4E.\nFigure 4 Effects of cathelicidins on phagocytosis by RAW264.7 cells. RAW264.7 cells were incubated with cathelicidins (0.31 μM, 1.25 μM, and 5 μM) and red fluorescent latex beads (10 beads to 1 cell) at 37 °C (energy dependent uptake) or on ice (non-specific adherence) for 30 minutes. Histograms show control (no peptide present) bead uptake at 37 °C (gray, filled) and 0 °C (black line) (A), or uptake in presence of different concentrations of indicated cathelicidins (B–D); 0 μM (red, filled), 0.31 μM (black line), 1.25 μM (green line) or 5 μM (blue line). Uptake was quantified by determining the MFI after correction for 0 °C control (E). Results are presented as average +/− SEM (N = 3). Statistical differences were determined by Two-way ANOVA with Bonferroni post-hoc test."}, "[1]": {"tested_on": "LPS-induced TLR-4 activation of RAW264.7 cells", "assay": "LPS neutralization: LPS-induced TNFα release", "assay_type": "cell-based, murine", "details": "peptide 0.08-20 μM; for LPS neutralization / inhibition of LPS-induced activation, in words: 100 ng/ml LPS, 2 h, TNFα; for Summary class, TLR activation LPS: 100 ng/ml LPS E. coli O111:B4, TNFα after 2 h, − = no significant effect, N = 3", "source_text": "TLR ligands: LPS Escherichia coli (E. coli) O111:B4 (TLR-4), LTA S. aureus (TLR-2), and ODN-1826 (TLR-9) were obtained from Invivogen (Toulouse, France). Chicken CATH-2 (chCATH-2) and PMAP-36 were synthesized by Fmoc-chemistry at China Peptides (CPC scientific, Sunnycale, CA) and all other cathelicidins were synthesized by Fmoc-chemistry at the Academic Centre for Dentistry Amsterdam (Amsterdam, The Netherlands) (Table 1). Purity of all peptides was >95% as analyzed by HPLC-MS.\nRAW264.7 cells were stimulated with 100 ng/ml LPS E. coli O111:B4, 1 μg/ml LTA S. aureus or 2.5 nM ODN-1826 in the presence of various concentrations of different cathelicidins. TNFα release was determined after 2 h for LPS and LTA stimulation and 24 h for ODN-1826 stimulation. CXCL10, CCL5 and IL-10 release were all determined after 24 h stimulation. As a control, RAW264.7 cells were stimulated for 2 h with 10^6 CFU/ml live or heat-killed (70 °C, 0.5 h) E. coli O78, followed by a double wash with cell culture medium and subsequent 22 h incubation in cell culture medium supplemented with 250 μg/ml gentamicin.\nELISA Duoset kits for mouse TNFα, CCL5, CXCL10 and IL-10 were obtained from R&D systems (Minneapolis, MN, USA) and ELISAs were performed according to the manufacturer’s protocol. Samples were stored at −20 °C until analysis and, if needed, diluted in 1% BSA in PBS, pH 7.4. Absorbance at 450 nm was determined in a FLUOstar Omega microplate reader (BMG Labtech GmbH) and corrected for absorbance at 570 nm. Results were analyzed with MARS data analysis software (BMG Labtech GmbH).\nRAW264.7 cells were stimulated for 2 h with 100 ng/ml LPS from E. coli O111:B4 in the presence of different cathelicidins at various concentrations to study the capability of LPS neutralization (Fig. 3A). […] Next, RAW264.7 cells were stimulated with 1 μg/ml S. aureus LTA for 2 h in the presence of various cathelicidin concentrations, to test LTA neutralization (Fig. 3B).\nFigure 3 Effects of cathelicidins on TLR-2, -4, and -9 activation. LPS (100 ng/ml) (A), LTA (1 μg/ml) (B) or ODN-1826 (2.5 nM) (C) was mixed with different cathelicidins (0.08 μM, 0.31 μM, 1.25 μM, 5 μM, and 20 μM) before addition to the RAW264.7 cells. Supernatants were collected after 2 hours (A,B) or 24 hours (C) incubation and TNFα expression was measured. The dotted line represents the average cytokine release of control samples. Results are presented as average +/− SEM (N = 3). Statistical differences were determined by Two-way ANOVA with Bonferroni post-hoc test."}}}
{"substance": "RIIDLLWRVRRPQKPKFVTVWVR [PMAP-23, porcine α-helical cathelicidin, 23 residues, charge +6]", "values": [{"measurement": "Summary class, phagocytosis", "setting": "RAW264.7 cells", "value": "↓↓ (↓↓ = significant decrease ≤5 μM)"}, {"measurement": "Effect on bead uptake (phagocytosis), in words", "setting": "RAW264.7 cells", "value": "reduced bead-uptake in a dose-dependent manner"}, {"measurement": "LPS neutralization / inhibition of LPS-induced activation, in words", "setting": "[1]", "value": "None of the equine cathelicidins nor PMAP-23 and PR-39 were capable to neutralize LPS"}]}
{"substance": "RLKELITTGGQKIGEKIRRIGQRIKDFFKNLQPREEKS [Peptide K9CATH, dog cathelicidin, 38 residues, charge +6]", "values": [{"measurement": "Summary class, phagocytosis", "setting": "RAW264.7 cells", "value": "↓↓ (↓↓ = significant decrease ≤5 μM)"}, {"measurement": "Effect on bead uptake (phagocytosis), in words", "setting": "RAW264.7 cells", "value": "reduced bead-uptake in a dose-dependent manner"}, {"measurement": "Summary class, TLR activation LPS", "setting": "[1]", "value": "↓↓ (↓↓ = significant decrease ≤5 μM)"}, {"measurement": "LPS neutralization / inhibition of LPS-induced activation, in words", "setting": "[1]", "value": "significantly inhibited"}]}
{"substance": "RFGRFLRKIRRFRPKVTITIQGSARF-NH2 [chCATH-2, chicken CATH-2, C-terminal amide, 26 residues, charge +9]", "values": [{"measurement": "Summary class, phagocytosis", "setting": "RAW264.7 cells", "value": "↓↓ (↓↓ = significant decrease ≤5 μM)"}, {"measurement": "Effect on bead uptake (phagocytosis), in words", "setting": "RAW264.7 cells", "value": "reduced bead-uptake in a dose-dependent manner"}, {"measurement": "Summary class, TLR activation LPS", "setting": "[1]", "value": "↓↓ (↓↓ = significant decrease ≤5 μM)"}, {"measurement": "LPS neutralization / inhibition of LPS-induced activation, in words", "setting": "[1]", "value": "potently inhibited"}]}
{"substance": "KRRHWFPLSFQEFLEQLRRFRDQLPFP [eCATH-2, equine CATH-2, 27 residues, charge +4]", "values": [{"measurement": "Increase of bead uptake", "setting": "RAW264.7 cells; latex beads, not significant", "value": "~50", "unit": "%"}]}
{"substance": "Ac-GRFRRLRKKTRKRLKKIGKVLKWIPPIVGSIPLGCG [PMAP-36, porcine α-helical cathelicidin, N-acetylated, 36 residues, charge +13]", "values": [{"measurement": "Summary class, phagocytosis", "setting": "RAW264.7 cells", "value": "↓↓ (↓↓ = significant decrease ≤5 μM)"}, {"measurement": "Effect on bead uptake (phagocytosis), in words", "setting": "RAW264.7 cells", "value": "only reduced phagocytosis at 5 μM"}, {"measurement": "Summary class, TLR activation LPS", "setting": "[1]", "value": "↓↓ (↓↓ = significant decrease ≤5 μM)"}]}
{"substance": "GLLRKGGEKIGEKLKKIGQKIKNFFQKLVPQPEQ [CRAMP, murine cathelicidin, 34 residues, charge +6]", "values": [{"measurement": "Summary class, phagocytosis", "setting": "RAW264.7 cells", "value": "↓↓ (↓↓ = significant decrease ≤5 μM)"}, {"measurement": "Effect on bead uptake (phagocytosis), in words", "setting": "RAW264.7 cells", "value": "reduced bead-uptake in a dose-dependent manner"}, {"measurement": "Summary class, TLR activation LPS", "setting": "[1]", "value": "↓↓ (↓↓ = significant decrease ≤5 μM)"}]}
{"substance": "RRRPRPPYLPRPRPPPFFPPRLPPRIPPGFPPRFPPRFP [PR-39, porcine proline-rich cathelicidin forming a polyproline helix, 39 residues, charge +10]", "values": [{"measurement": "Effect on bead uptake (phagocytosis), in words", "setting": "RAW264.7 cells", "value": "did not affect bead uptake"}, {"measurement": "LPS neutralization / inhibition of LPS-induced activation, in words", "setting": "[1]", "value": "None of the equine cathelicidins nor PMAP-23 and PR-39 were capable to neutralize LPS"}]}
{"substance": "RVKRFWPLVPVAINTVAAGINLYKAIRRK [chCATH-3, chicken CATH-3, 29 residues, charge +7]", "values": [{"measurement": "Effect on bead uptake (phagocytosis), in words", "setting": "RAW264.7 cells", "value": "did not affect bead uptake"}, {"measurement": "Summary class, TLR activation LPS", "setting": "[1]", "value": "↓↓ (↓↓ = significant decrease ≤5 μM)"}, {"measurement": "LPS neutralization / inhibition of LPS-induced activation, in words", "setting": "[1]", "value": "significantly inhibited"}]}
